Data as given in patent publication US7067146B2, “Food compositions and methods of preparing the same” (Eritocap Oy, priority 1999, dated 2006).

Key:
Solubility = assay type: physicochemical
[1] = test system: cholesterol in blood serum; conditions: Merck Index, 12th Edition; cited from earlier work
SAH hydrolase = SAH hydrolase (Homo sapiens, UniProt P23526)
Text: It is possible to achieve favourable changes in the blood plasma cholesterol pattern by reducing the molar ratio of total cholesterol/phospholipid ratio and/or changing the phospolipid molar ratio of PC/PE and/or inhibiting enzymatically controlled reactions where PC and PE is directly or indirectly via the SAM/SAH cycle involved. The following theory has been formulated: • Step 1: Total PL and PL (phospholipids) composition may be changed by kinetics of the SAM and SAH cycle. • Step 2: SAM and SAH concentrations are inhibited/stimulated by intervening in the methionine and cysteine metabolism • Step 3: In this metabolism SAH degradation to adenosine and homocysteine is an enzymatic reaction catalysed by SAH hydrolase. By inhibiting partially, not totally, SAH hydrolase, the concentration of SAH will rise affecting the SAM/SAH ratio and step 1 will be executed.
Eritadenine has been tested for use in the above model.

[2] = test system: cholesterol in blood serum; assay: Blood serum cholesterol reduction by eritadenine; assay type: in vivo, human
Text: As regards the therapeutic action of eritadenine it should be noted that it acts endogenously in a dose-dependent manner and can be used as a functional food component in small doses for reducing the total cholesterol of normal human beings. By contrast, existing methods provide for food components having an exogenous effect on the cholesterol balance and these dietary components therefore have to be used in extremely large doses in comparison to eritadenine. […] The present invention makes it possible to produce a functional food component which acts in a druglike manner influencing human phospholipidic metabolic step sequences, still preserving the true features of a functional food component. As mentioned above, eritadenine has the additive effects of not only dose-dependent, endogenous cholesterol-depression but also therapeutic effects like endogenous linoleic acid formation and blood plasma viscosity reduction.
It acts in a drug-like manner, inhibiting the endogenous synthesis of cholesterol metabolism and the enterohepatic fat circle. d-eritadenine is effective in very low absorbed doses, at 1 ppm+-level, ensuring safety and essential metabolic step preservation.
Thus, the addition of eritadenine, especially d-eritadenine, to an exogenously acting existing functional food will more than double the cholesterol-depressing effect due to enterohepatic and exterohepatic multiplicatory effects. Mathematically consecutive 10% reductions would give […] total reduction, and consecutive 15% reductions would give 28% total reduction, by the present invention, due to the feedback inhibition created by the simultaneous exogenous and endogenous actions of the food components, a greater decrease of the cholesterol level will be achieved. The food compositions according to the present invention may therefore comprise a (conventional) food component having an exterohepatic cholesterol depressing effect. Such a food component can be selected from the group of fibers, chitosan, tocotrienols, plant sterols, stanol esters and sitostanol esters. […]

Sequence of SAH hydrolase (P23526 whole entry): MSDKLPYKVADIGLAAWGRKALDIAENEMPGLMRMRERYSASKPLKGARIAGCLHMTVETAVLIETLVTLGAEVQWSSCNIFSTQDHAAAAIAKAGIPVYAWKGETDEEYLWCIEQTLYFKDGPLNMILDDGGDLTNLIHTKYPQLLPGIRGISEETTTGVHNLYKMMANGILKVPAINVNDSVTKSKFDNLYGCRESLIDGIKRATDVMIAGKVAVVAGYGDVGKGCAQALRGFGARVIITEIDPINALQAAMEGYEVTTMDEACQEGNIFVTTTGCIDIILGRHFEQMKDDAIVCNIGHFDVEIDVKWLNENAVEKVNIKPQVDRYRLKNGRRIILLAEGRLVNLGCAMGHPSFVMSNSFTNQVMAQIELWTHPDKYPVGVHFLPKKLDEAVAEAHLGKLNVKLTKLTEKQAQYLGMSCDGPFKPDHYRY

## Nc1ncnc2c1ncn2C[C@@H](O)[C@@H](O)C(=O)O [Eritadenine]
Solubility
  solubility in fats: soluble in fats
[1]
  effect on concentration of cholesterol in blood serum: capable of reducing the concentration of cholesterol in blood serum

## Nc1ncnc2c1ncn2C[C@@H](O)[C@@H](O)C(=O)O [d-eritadenine, 2(R), 3(R)-dihydroxy-4-(9-adenyl)butyric acid]
SAH hydrolase
  dose needed for SAH hydrolase inhibition: inhibits already in small doses
  extent of SAH hydrolase inhibition: inhibits partially, no total blocking
  speed of SAH hydrolase inhibition: rapid
[2]; 5 to 50 mg as dose response, depending on the dietary cholesterol amount
  reduction of cholesterol: > 20%
[2]; absorbed dose
  effective absorbed dose level: ≥ 1 ppm
[2]; compared with l-eritadenine (2S,3S) and threo isomers
  relative efficiency among eritadenine isomers: most efficient
